PubChem BioAssay AID1963982 (Molecular Pharmacology Branch, DTP, NCI, 2024)

Test system: 313798-341-R-J2-PDC spheroids, viability
Experiment: Anticancer human tumor 313798-341-R-J2-PDC patient-derived cervical squamous cell carcinoma cell line growth inhibition [PI3K]
Settings: spheroids with HUVEC and MSC; for IC50: curve of first compound; for viability, T/C: stronger effect = lower value
How it was run: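 High-throughput combination screen: PI3K inhibitors crossed with targeted small molecules on complex spheroids of tumor cells, HUVEC and MSCs at 37 degrees C, 5% CO2. Top concentration was at or near clinical Cmax (otherwise 10 microM), with half-log decrements.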
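Also: spheroids exposed to compounds for seven days.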
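For viability, T/C in this document: 100% = DMSO vehicle control viability.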

For CC(C)NCC(C(=O)N1CCN(c2ncnc3c2C(C)CC3O)CC1)c1ccc(Cl)cc1 (configuration not stated) + CC(Nc1ccc2c(c1)OCCn1cc(N3C(=O)OCC3C(F)F)nc1-2)C(N)=O, the IC50 (second compound 0.00316 µM) was 2250 nM, the IC50 (second compound 0.01 µM) was 1850 nM and the IC50 (second compound 0.0316 µM) was 2380 nM. For the same compound, the IC50 (second compound 0.1 µM) was 1910 nM, the IC50 (second compound 0.316 µM) was 805 nM and the IC50 (second compound 1 µM) was 74.9 nM. It also gave a viability, T/C (second compound 0.00316 µM, first compound 0.0316 µM) of 107%, a viability, T/C (second compound 0.00316 µM, first compound 0.1 µM) of 94.9% and a viability, T/C (second compound 0.00316 µM, first compound 0.316 µM) of 81%. The viability, T/C (second compound 0.00316 µM, first compound 1 µM) was 68.6%, the viability, T/C (second compound 0.00316 µM, first compound 3.16 µM) was 40.5% and the viability, T/C (second compound 0.00316 µM, first compound 10 µM) was 25.9%. The viability, T/C (second compound 0.01 µM, first compound 0.0316 µM) was 107%, the viability, T/C (second compound 0.01 µM, first compound 0.1 µM) was 103% and the viability, T/C (second compound 0.01 µM, first compound 0.316 µM) was 93.5%. For the same compound, the viability, T/C (second compound 0.01 µM, first compound 1 µM) was 61.1%, the viability, T/C (second compound 0.01 µM, first compound 3.16 µM) was 41.1% and the viability, T/C (second compound 0.01 µM, first compound 10 µM) was 30.2%. It also gave a viability, T/C (second compound 0.0316 µM, first compound 0.0316 µM) of 106%, a viability, T/C (second compound 0.0316 µM, first compound 0.1 µM) of 92.5% and a viability, T/C (second compound 0.0316 µM, first compound 0.316 µM) of 82.2%. For the same compound, the viability, T/C (second compound 0.0316 µM, first compound 1 µM) was 69.5%, the viability, T/C (second compound 0.0316 µM, first compound 3.16 µM) was 41.3% and the viability, T/C (second compound 0.0316 µM, first compound 10 µM) was 25.6%. The viability, T/C (second compound 0.1 µM, first compound 0.0316 µM) was 121%, the viability, T/C (second compound 0.1 µM, first compound 0.1 µM) was 99.6% and the viability, T/C (second compound 0.1 µM, first compound 0.316 µM) was 80.9%. The viability, T/C (second compound 0.1 µM, first compound 1 µM) was 62.5%, the viability, T/C (second compound 0.1 µM, first compound 3.16 µM) was 39.5% and the viability, T/C (second compound 0.1 µM, first compound 10 µM) was 27.2%. It also gave a viability, T/C (second compound 0.316 µM, first compound 0.0316 µM) of 84.6%, a viability, T/C (second compound 0.316 µM, first compound 0.1 µM) of 84.2% and a viability, T/C (second compound 0.316 µM, first compound 0.316 µM) of 62.3%. The viability, T/C (second compound 0.316 µM, first compound 1 µM) was 46.7%, the viability, T/C (second compound 0.316 µM, first compound 3.16 µM) was 35.4% and the viability, T/C (second compound 0.316 µM, first compound 10 µM) was 26%. For the same compound, the viability, T/C (second compound 1 µM, first compound 0.0316 µM) was 53%, the viability, T/C (second compound 1 µM, first compound 0.1 µM) was 50.2% and the viability, T/C (second compound 1 µM, first compound 0.316 µM) was 42.1%. For the same compound, the viability, T/C (second compound 1 µM, first compound 1 µM) was 38.2%, the viability, T/C (second compound 1 µM, first compound 3.16 µM) was 30.5% and the viability, T/C (second compound 1 µM, first compound 10 µM) was 25.5%.
